# In US12543736B2, “Herbicidal compositions comprising mesotrione” (BASF SE, priority 2024, dated 2026):
# Tests used:
# Type in all cases: in vivo
# [1] = tested on: Alopercurus myosuroides; experiment: Example 1 post-emergence greenhouse trial, ALOMY; conditions: growth stage 13, 21 DAT, g ai/ha: A-1 4, B 62.5
# Description: (§1) In the examples below, using the method of S. R. Colby (1967) “Calculating synergistic and antagonistic responses of herbicide combinations”, Weeds 15, p. 22ff., the value E, which is expected if the activity of the individual active compounds is only additive, was calculated: [formula] • where • X=percent activity using active herbicide A at an application rate a; • Y=percent activity using active herbicide B (e.g. mesotrione) at an application rate b; • E=expected activity (in %) by A+B at application rates a+b. If the value found experimentally is higher than the value E calculated according to Colby, a synergistic effect is present. The culture containers used were plastic pots containing loamy sand with approximately 3.0% of humus as substrate. The seeds of the test plants were sown separately for each species. For the post-emergence treatment, the test plants were grown to a plant height of from 3 to 15 cm, depending on the plant habit, and only then treated with the active compounds which had been suspended or emulsified in water. To this end, the test plants were either sown directly, and grown in the same containers, or they were first grown separately as seedlings and transplanted into the test containers a few days prior to treatment. […] During this time, the plants were tended and their response to the individual treatments was evaluated. […]
# [2] = tested on: Erigeron canadensis; experiment: Example 1 post-emergence greenhouse trial, ERICA; conditions: growth stage 18, 21 DAT
# Description: In the examples below, using the method of S. R. Colby (1967) “Calculating synergistic and antagonistic responses of herbicide combinations”, Weeds 15, p. 22ff., the value E, which is expected if the activity of the individual active compounds is only additive, was calculated: [formula] • where • X=percent activity using active herbicide A at an application rate a; • Y=percent activity using active herbicide B (e.g. mesotrione) at an application rate b; • E=expected activity (in %) by A+B at application rates a+b. If the value found experimentally is higher than the value E calculated according to Colby, a synergistic effect is present. The culture containers used were plastic pots containing loamy sand with approximately 3.0% of humus as substrate. The seeds of the test plants were sown separately for each species. For the post-emergence treatment, the test plants were grown to a plant height of from 3 to 15 cm, depending on the plant habit, and only then treated with the active compounds which had been suspended or emulsified in water. To this end, the test plants were either sown directly, and grown in the same containers, or they were first grown separately as seedlings and transplanted into the test containers a few days prior to treatment. Depending on the species, the plants were kept at 10-25° C. and 20-35° C., respectively. The test period extended over 2 to 4 weeks. During this time, the plants were tended and their response to the individual treatments was evaluated. Evaluation was carried out using a scale from 0 to 100. 100 means no emergence of the plants, or complete destruction of at least the above-ground parts, and 0 means no damage or normal course of growth. A good herbicidal activity is given at values of at least 70, and very good herbicidal activity is given at values of at least 85. Post-Emergence Application of Herbicide A-1 (A-1) and Mesotrione (B) in Greenhouse Trials Herbicide A-1 (50 g/l) and mesotrione (480 g/l) were, together with addition of 1 v/v % MSO (methylated sed oil) as adjuvant, formulated in water as distribution medium (water volume 200 l/ha) and sprayed with commercial flat fan nozzles.
# [3] = tested on: Panicum dichotomiflorum; experiment: Example 1 post-emergence greenhouse trial, PANDI; conditions: growth stage 13, 21 DAT, g ai/ha: A-1 4, B 62.5
# Description: as §1
# [4] = tested on: Avena fatua; experiment: Example 2 post-emergence greenhouse trial, AVEFA
# Description: (§2) In the examples below, using the method of S. R. Colby (1967) “Calculating synergistic and antagonistic responses of herbicide combinations”, Weeds 15, p. 22ff., the value E, which is expected if the activity of the individual active compounds is only additive, was calculated: [formula] • where • X=percent activity using active herbicide A at an application rate a; • Y=percent activity using active herbicide B (e.g. mesotrione) at an application rate b; • E=expected activity (in %) by A+B at application rates a+b. If the value found experimentally is higher than the value E calculated according to Colby, a synergistic effect is present. The culture containers used were plastic pots containing loamy sand with approximately 3.0% of humus as substrate. The seeds of the test plants were sown separately for each species. For the post-emergence treatment, the test plants were grown to a plant height of from 3 to 15 cm, depending on the plant habit, and only then treated with the active compounds which had been suspended or emulsified in water. To this end, the test plants were either sown directly, and grown in the same containers, or they were first grown separately as seedlings and transplanted into the test containers a few days prior to treatment. Depending on the species, the plants were kept at 10-25° C. and 20-35° C., respectively. The test period extended over 2 to 4 weeks. During this time, the plants were tended and their response to the individual treatments was evaluated. Evaluation was carried out using a scale from 0 to 100. 100 means no emergence of the plants, or complete destruction of at least the above-ground parts, and 0 means no damage or normal course of growth. A good herbicidal activity is given at values of at least 70, and very good herbicidal activity is given at values of at least 85. Post-Emergence Application of Herbicide A-1 (A-1) and Mesotrione (B) in Greenhouse Trials Herbicide A-1 (342 g/l) and mesotrione (480 g/l) were, together with addition of 0.5 v/v % MSO (methylated sed oil) as adjuvant, formulated in water as distribution medium (water volume 200 l/ha) and sprayed with commercial flat fan nozzles.
# [5] = tested on: Digitaria sanguinalis; experiment: Example 2 post-emergence greenhouse trial, DIGSA; conditions: growth stage 12, 7 DAT
# Description: as §2
# [6] = tested on: Amaranthus retroflexus; experiment: Example 3 post-emergence field trial, AMARE; conditions: height 10-12 cm; for % herbicidal activity B / % herbicidal activity A-1: 42 DAT
# Description: (§3) In the examples below, using the method of S. R. Colby (1967) “Calculating synergistic and antagonistic responses of herbicide combinations”, Weeds 15, p. 22ff., the value E, which is expected if the activity of the individual active compounds is only additive, was calculated: [formula] • where • X=percent activity using active herbicide A at an application rate a; • Y=percent activity using active herbicide B (e.g. mesotrione) at an application rate b; • E=expected activity (in %) by A+B at application rates a+b. If the value found experimentally is higher than the value E calculated according to Colby, a synergistic effect is present. Evaluation was carried out using a scale from 0 to 100. 100 means no emergence of the plants, or complete destruction of at least the above-ground parts, and 0 means no damage or normal course of growth. A good herbicidal activity is given at values of at least 70, and very good herbicidal activity is given at values of at least 85. Post-Emergence Application of Herbicide A-1 (A-1) and Mesotrione (B) in Field Trials Herbicide A-1 (342 g/l) and mesotrione (100 g/l) were, together with addition of 0.5 v/v % MSO (methylated sed oil) as adjuvant, formulated in water as distribution medium (water volume 200 l/ha) and sprayed with commercial flat fan nozzles.
# [7] = tested on: Senecio vulgaris; experiment: Example 3 post-emergence field trial, SENVU; conditions: height 25-30 cm, 7 DAT
# Description: as §3
# [8] = growth stage 11, 7 DAT, g ai/ha: A-1 1, B 50
# [9] = growth stage 11, 20 DAT, g ai/ha: A-1 1, B 50
# [10] = growth stage 11, 20 DAT, g ai/ha: A-1 1, B 100
# [11] = 7 DAT, g ai/ha: A-1 12.5, B 105
# [12] = 7 DAT, g ai/ha: A-1 12.5, B 210
# [13] = 21 DAT, g ai/ha: A-1 12.5, B 210
SMILES,% herbicidal activity [1],"% herbicidal activity ([2]; g ai/ha: A-1 0.5, B 62.5)","% herbicidal activity ([2]; g ai/ha: A-1 1, B 62.5)",% herbicidal activity [3],"% herbicidal activity [4, 8]","% herbicidal activity [4, 9]","% herbicidal activity [4, 10]","% herbicidal activity ([5]; g ai/ha: A-1 0.25, B 50)","% herbicidal activity ([5]; g ai/ha: A-1 0.25, B 100)","% herbicidal activity ([5]; g ai/ha: A-1 0.5, B 50)","% herbicidal activity [6, 11]","% herbicidal activity [6, 12]","% herbicidal activity ([6]; 7 DAT, g ai/ha: A-1 18, B 105)","% herbicidal activity ([6]; 7 DAT, g ai/ha: A-1 18, B 210)","% herbicidal activity [6, 13]","% herbicidal activity ([6]; 21 DAT, g ai/ha: A-1 18, B 105)","% herbicidal activity ([6]; 21 DAT, g ai/ha: A-1 18, B 210)","% herbicidal activity ([7]; g ai/ha: A-1 12.5, B 210)","% herbicidal activity ([7]; g ai/ha: A-1 18, B 210)",other results
"CS(=O)(=O)c1ccc(C(=O)C2C(=O)CCCC2=O)c([N+](=O)[O-])c1 [B, mesotrione]",0%,65%,65%,0%,15%,15%,15%,70%,80%,70%,65%,65%,65%,65%,65%,65%,65%,40%,40%,% herbicidal activity B ([6]; B 210 g ai/ha (row with A-1 12.5)): 65%; % herbicidal activity B ([6]; B 210 g ai/ha (row with A-1 18)): 80%
"CCOC(=O)COc1ccccc1Oc1nc(-n2c(=O)cc(C(F)(F)F)n(C)c2=O)c(F)cc1Cl [A-1, ethyl 2-[2-[[3-chloro-5-fluoro-6-[3-methyl-2,6-dioxo-4-(trifluoromethyl)pyrimidin-1-yl]-2-pyridyl]oxy]phenoxy]acetate]",85%,60%,80%,95%,70%,35%,35%,30%,30%,80%,85%,80%,93%,90%,80%,80%,75%,85%,88%,% herbicidal activity A-1 ([6]; A-1 12.5 g ai/ha): 80%; % herbicidal activity A-1 ([6]; A-1 18 g ai/ha): 85%
